Measurements published in patent publication US20240239790A1, “7-Morpholino-1,6-Naphthyridin-5-yl Derivatives and Pharmaceutical Compositions Thereof Useful as DNA-PK Inhibitor” (adMare Therapeutics Society, priority 2021, published 2024).
Like-named read-outs stand apart in the source and are kept apart here.

Experiments:
[1] = Pharmacokinetic study in male Beagle dogs (IV and PO), plasma; assay type: in vivo, dog; conditions: for AUC—% Extrap—obs / Cl_obs / Vz_obs / AUC(0-t) / half-life / AUC(0-inf) / Cmax: dog plasma; for AUC(0-t) / half-life / AUC(0-inf) / Cmax: male, Beagle; for AUC(0-inf): read-out: AUCINF—obs; for Cmax: read-out: Cmax (5 min)
Experimental: Pharmacokinetic studies were conducted to estimate plasma concentrations obtained after oral gavage (PO) and intravenous (IV) single administration of compounds administered to separate groups of male Beagle dogs. Three (3) dogs were administered a compound via the intravenous (IV) route at 3 mg/kg and 2.5 mL/kg, and plasma was collected at 12 timepoints over a 24-hour period. Following a 7 days washout period, the same dogs were administered the same compound via PO at 10 mg/kg and 5 mL/kg, and plasma was collected at 12 timepoints over a 48-hour period.
(§1) The in-vivo study plasma samples were analyzed using Ultra Performance Liquid Chromatography (UPLC) with tandem mass spectrometry (MS/MS) detection in multiple reaction monitoring (MRM) mode. A generic bioanalytical method involving plasma sample extraction and cleanup by protein precipitation with acetonitrile was used followed by UPLC-MS/MS analysis.
(§2) A brief example of a generic bioanalytical UPLC-MS/MS method used for analysis of compounds in the in-vivo study plasma samples is as follows. Plasma samples were spiked with internal standard prior to extraction and cleanup by protein precipitation with ice cold acetonitrile containing 0.1% (v/v) ammonium hydroxide at a ratio of 3:1 (solvent:plasma) and centrifuged at 18213 rcf for 15 minutes at 4° C. to pellet precipitates. Aliquots of supernatants were transferred to a 96-well plate and evaporated to dryness at 40° C. under a stream of nitrogen gas. Samples were reconstituted in 50:50 acetonitrile/10 mM ammonium acetate buffer pH 8, mixed thoroughly and analyzed using Ultra Performance Liquid Chromatography (UPLC) with tandem mass spectrometry (MS/MS) detection in multiple reaction monitoring (MRM) mode. Matrix-matched calibration standards and quality control (QC) samples were prepared in naïve C57Bl/6 mouse plasma. The UPLC column used was Waters Acquity UPLC BEH C18 1.7 um, 2.1 mm×50 mm (with guard column). The UPLC mobile phase consisted of: Mobile phase A: 10 mM ammonium acetate in Water pH 8, and Mobile phase B: Acetonitrile. Separation was accomplished with a linear gradient of 5% mobile phase B to 95% mobile phase B in 2 min, and a flow rate of 0.35 mL/min. The MS/MS data acquisition was accomplished using 3 MRM Transitions in ESI+ mode. Parent ion mass 508.37 m/z-to-Daughter ions (m/z) 117.05, 232.13 and 270.22. The quantitation of concentrations in test samples was achieved by matrix-matched calibration with normalization using an internal standard. Data acquisition and analysis were performed using Waters MassLynx software with TargetLynx application manager.
(§3) Estimation of PK parameters was performed using independent noncompartmental model method by PHOENIX WinNonlin software.

[2] = Pharmacokinetic study in male Sprague-Dawley rats (IV and PO), plasma; assay type: in vivo, rat; conditions: for AUC(0-t) / Cmax at 5 min / half-life / AUC(0-inf): male, Sprague-Dawley; for AUC(0-t) / Cmax at 5 min / half-life / AUC(0-inf) / AUC—% Extrap—obs / Cl_obs / Vz_obs: rat plasma; for AUC(0-inf): read-out: AUCINF—obs; for F: rat
Experimental: Pharmacokinetic studies were conducted to estimate plasma concentrations obtained after oral gavage (PO) and intravenous (IV) single administration of compounds administered to male Sprague-Dawley rats. Six (6) rats were administered for each compound, route and dose, and plasma was collected at 12 timepoints over a 24 hr period for IV, and 12 timepoints over a 48 hr period for PO. Note that plasma was collected from only 3 animals per timepoint (n=3 for timepoints up to 10 hours, and n=3 for timepoints from 16 h to end of study). Dosing volumes were 5 mL/kg for IV and 10 mL/kg for PO gavage. IV compounds for administration were in solutions, whereas PO compounds were in solution or suspension.
as §1, §2, §3

AUC—% Extrap—obs ([1]; IV, 3 mg/kg): 0.79% | Cl_obs ([1]; IV, 3 mg/kg): 14.338 mL/min/kg | Vz_obs ([1]; IV, 3 mg/kg): 4.48058 L/kg | AUC—% Extrap—obs ([1]; PO, 10 mg/kg): 0.78% | Cl_obs ([1]; PO, 10 mg/kg): 35.8008 mL/min/kg | Vz_obs ([1]; PO, 10 mg/kg): 11.52897 L/kg | F ([1]; dog, PO, 10 mg/kg): 46% | AUC(0-t) ([1]; IV, 3 mg/kg): 3480 ng·h/mL | half-life ([1]; IV, 3 mg/kg): 3.64 h | AUC(0-inf) ([1]; IV, 3 mg/kg): 3500 ng·h/mL | Cmax ([1]; IV, 3 mg/kg): 3700 ng/mL | AUC(0-t) ([1]; PO, 10 mg/kg): 5300 ng·h/mL | half-life ([1]; PO, 10 mg/kg): 4.39 h | AUC(0-inf) ([1]; PO, 10 mg/kg): 5340 ng·h/mL | Cmax ([1]; PO, 10 mg/kg): 1070 ng/mL | AUC(0-t) ([2]; IV, 3 mg/kg): 912 ng·h/mL | Cmax at 5 min ([2]; IV, 3 mg/kg): 1600 ng/mL | half-life ([2]; IV, 3 mg/kg): 1.49 h | AUC(0-inf) ([2]; IV, 3 mg/kg): 913 ng·h/mL | AUC(0-t) ([2]; PO, 3 mg/kg): 241 ng·h/mL | Cmax at 5 min ([2]; PO, 3 mg/kg): 87.5 ng/mL | half-life ([2]; PO, 3 mg/kg): 5.68 h | AUC(0-inf) ([2]; PO, 3 mg/kg): 330 ng·h/mL | AUC(0-t) ([2]; PO, 10 mg/kg): 1070 ng·h/mL | Cmax at 5 min ([2]; PO, 10 mg/kg): 235 ng/mL | half-life ([2]; PO, 10 mg/kg): 2.64 h | AUC(0-inf) ([2]; PO, 10 mg/kg): 1220 ng·h/mL | AUC(0-t) ([2]; PO, 30 mg/kg): 5760 ng·h/mL | Cmax at 5 min ([2]; PO, 30 mg/kg): 655 ng/mL | half-life ([2]; PO, 30 mg/kg): 13.7 h | AUC(0-inf) ([2]; PO, 30 mg/kg): 15800 ng·h/mL | AUC—% Extrap—obs ([2]; IV, 3 mg/kg): 0.10% | Cl_obs ([2]; IV, 3 mg/kg): 54.761 mL/min/kg | Vz_obs ([2]; IV, 3 mg/kg): 7.05679 L/kg | AUC—% Extrap—obs ([2]; PO, 3 mg/kg): 26.80% | Cl_obs ([2]; PO, 3 mg/kg): 151.581 mL/min/kg | Vz_obs ([2]; PO, 3 mg/kg): 74.5443 L/kg | AUC—% Extrap—obs ([2]; PO, 10 mg/kg): 12.39% | Cl_obs ([2]; PO, 10 mg/kg): 136.306 mL/min/kg | Vz_obs ([2]; PO, 10 mg/kg): 31.192 L/kg | AUC—% Extrap—obs ([2]; PO, 30 mg/kg): 63.5% | Cl_obs ([2]; PO, 30 mg/kg): 31.6652 mL/min/kg | Vz_obs ([2]; PO, 30 mg/kg): 37.65453 L/kg | F ([2]; PO, 3 mg/kg): 26% | F ([2]; PO, 10 mg/kg): 35% | F ([2]; PO, 30 mg/kg): 63%
SMILES: O=C(COc1cnc(N[C@H]2CC[C@@H](Oc3nc(N4CCOCC4)cc4ncccc34)CC2)nc1)N1CCOCC1 [Compound 61, 1-Morpholino-2-((2-(((1s,4s)-4-((7-morpholino-1,6-naphthyridin-5-yl)oxy)cyclohexyl)amino)pyrimidin-5-yl)oxy)ethan-1-one]
